Literature values, collected in US6310089A, “Composition for the administration of a D1-agonists” (West Pharmaceutical Services Drug Delivery & Clinical …, priority 1998, dated 2001).

What was measured:
Parkinson's disease = conditions: D1 partial agonists

Compound | agonism at dopamine D1 receptors (dopamine D1 receptors) | evaluation outcome (Parkinson's disease)
CN1Cc2ccccc2C2c3cccc4[nH]cc(c34)CC21 (single isomer, unassigned) [CY208.243] | partial agonists | inconclusive results
Oc1cc2c(cc1O)C(c1ccccc1)CNCC2 (stereo not shown) [SKF 38393] | partial agonists | inconclusive results
